Measured values reported in PubChem BioAssay AID2060883 (Molecular Pharmacology Branch, DTP, NCI, 2025).

Tested on: 843782-103-R-J1-PDC complex spheroid viability
Experiment: Anticancer human tumor 843782-103-R-J1-PDC patient-derived lung adenocarcinoma cell line growth inhibition [RAS]
Settings: for viability, T/C: stronger effect = lower value
Summary of the method: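 Multi-cell-type spheroids: tumor cells plus HUVEC endothelial cells and mesenchymal stem cells. RAS-pathway inhibitors were combined with targeted agents, each dosed in half-log steps down from clinical Cmax, or from 10 microM when Cmax was unknown.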

[1] = curve of first compound, second compound 0.000949 µM
[2] = curve of first compound, second compound 0.003 µM
[3] = curve of first compound, second compound 0.00949 µM
[4] = curve of first compound, second compound 0.03 µM
[5] = curve of first compound, second compound 0.0949 µM
[6] = curve of first compound, second compound 0.3 µM
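Further: viability read after seven days of compound exposure.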

Structure (SMILES): CC1(C)CCC(Nc2ncc(C(F)(F)F)c(-c3c[nH]c4c(P(C)(C)=O)c(C#N)ccc34)n2)CN1 (stereo not given) + CCn1c(-c2cccnc2C(C)OC)c2c3cc(ccc31)N1CCOC(CC(NC(=O)C(C(C)C)N(C)C(=O)C3(F)CCN(C(=O)C#CC(C)(C)N(C)C)CC3)C(=O)N3CCCC(N3)C(=O)OCC(C)(C)C2)C1
- IC50 [1]: 2.53 nM
- IC50 [2]: 2.29 nM
- IC50 [3]: 3.46 nM
- IC50 [4]: 3.86 nM
- IC50 [5]: 2.63 nM
- IC50 [6]: 1.67 nM
- viability, T/C (second compound 0.000949 µM, first compound 0.000949 µM): 78.2%
- viability, T/C (second compound 0.000949 µM, first compound 0.003 µM): 45.2%
- viability, T/C (second compound 0.000949 µM, first compound 0.00949 µM): 29.4%
- viability, T/C (second compound 0.000949 µM, first compound 0.03 µM): 26.6%
- viability, T/C (second compound 0.000949 µM, first compound 0.0949 µM): 22.9%
- viability, T/C (second compound 0.000949 µM, first compound 0.3 µM): 21.8%
- viability, T/C (second compound 0.003 µM, first compound 0.000949 µM): 59.9%
- viability, T/C (second compound 0.003 µM, first compound 0.003 µM): 46.3%
- viability, T/C (second compound 0.003 µM, first compound 0.00949 µM): 32.3%
- viability, T/C (second compound 0.003 µM, first compound 0.03 µM): 21%
- viability, T/C (second compound 0.003 µM, first compound 0.0949 µM): 17.9%
- viability, T/C (second compound 0.003 µM, first compound 0.3 µM): 19.4%
- viability, T/C (second compound 0.00949 µM, first compound 0.000949 µM): 59.6%
- viability, T/C (second compound 0.00949 µM, first compound 0.003 µM): 51.8%
- viability, T/C (second compound 0.00949 µM, first compound 0.00949 µM): 34%
- viability, T/C (second compound 0.00949 µM, first compound 0.03 µM): 20.2%
- viability, T/C (second compound 0.00949 µM, first compound 0.0949 µM): 19.5%
- viability, T/C (second compound 0.00949 µM, first compound 0.3 µM): 19%
- viability, T/C (second compound 0.03 µM, first compound 0.000949 µM): 62.9%
- viability, T/C (second compound 0.03 µM, first compound 0.003 µM): 55.1%
- viability, T/C (second compound 0.03 µM, first compound 0.00949 µM): 33%
- viability, T/C (second compound 0.03 µM, first compound 0.03 µM): 22.6%
- viability, T/C (second compound 0.03 µM, first compound 0.0949 µM): 18.8%
- viability, T/C (second compound 0.03 µM, first compound 0.3 µM): 18%
- viability, T/C (second compound 0.0949 µM, first compound 0.000949 µM): 69.3%
- viability, T/C (second compound 0.0949 µM, first compound 0.003 µM): 46.8%
- viability, T/C (second compound 0.0949 µM, first compound 0.00949 µM): 31.5%
- viability, T/C (second compound 0.0949 µM, first compound 0.03 µM): 18.5%
- viability, T/C (second compound 0.0949 µM, first compound 0.0949 µM): 17.3%
- viability, T/C (second compound 0.0949 µM, first compound 0.3 µM): 17.6%
- viability, T/C (second compound 0.3 µM, first compound 0.000949 µM): 57.7%
- viability, T/C (second compound 0.3 µM, first compound 0.003 µM): 41.8%
- viability, T/C (second compound 0.3 µM, first compound 0.00949 µM): 24.4%
- viability, T/C (second compound 0.3 µM, first compound 0.03 µM): 15.5%
- viability, T/C (second compound 0.3 µM, first compound 0.0949 µM): 13.6%
- viability, T/C (second compound 0.3 µM, first compound 0.3 µM): 14.4%

Structure (SMILES): CC1(O)CCCC1n1c(=O)c(C(F)F)cc2cnc(NC3CCN(S(C)(=O)=O)CC3)nc21 (stereo not given)
- viability, T/C (compound 0.0316 µM): 103% [middle of 4 runs]
- viability, T/C (compound 0.316 µM): 31.9% [middle of 4 runs]
- viability, T/C (compound 1 µM): 37.1% [middle of 4 runs]
- viability, T/C (compound 3.16 µM): 23.7% [middle of 4 runs]
- viability, T/C (compound 10 µM): 3.54% [middle of 4 runs]
- IC50 (curve of compound): 307 nM [middle of 4 runs]

Structure (SMILES): C=CC(=O)N1CCN(c2nc(OCC3CCCN3C)nc3c(F)c(-c4nc(N)cc(C)c4C(F)(F)F)c(Cl)cc23)C(C)C1 (stereo not given) + CCn1c(-c2cccnc2C(C)OC)c2c3cc(ccc31)N1CCOC(CC(NC(=O)C(C(C)C)N(C)C(=O)C3(F)CCN(C(=O)C#CC(C)(C)N(C)C)CC3)C(=O)N3CCCC(N3)C(=O)OCC(C)(C)C2)C1
- IC50 [1]: > 1000 nM
- IC50 [2]: > 1000 nM
- IC50 [3]: > 1000 nM
- IC50 [4]: > 1000 nM
- IC50 [5]: > 1000 nM
- IC50 [6]: > 1000 nM
- viability, T/C (second compound 0.000949 µM, first compound 0.00316 µM): 80.5%
- viability, T/C (second compound 0.000949 µM, first compound 0.01 µM): 67.2%
- viability, T/C (second compound 0.000949 µM, first compound 0.0316 µM): 75.9%
- viability, T/C (second compound 0.000949 µM, first compound 0.1 µM): 77.9%
- viability, T/C (second compound 0.000949 µM, first compound 0.316 µM): 72.8%
- viability, T/C (second compound 0.000949 µM, first compound 1 µM): 78.5%
- viability, T/C (second compound 0.003 µM, first compound 0.00316 µM): 71.4%
- viability, T/C (second compound 0.003 µM, first compound 0.01 µM): 69.3%
- viability, T/C (second compound 0.003 µM, first compound 0.0316 µM): 77.7%
- viability, T/C (second compound 0.003 µM, first compound 0.1 µM): 81.6%
- viability, T/C (second compound 0.003 µM, first compound 0.316 µM): 78.3%
- viability, T/C (second compound 0.003 µM, first compound 1 µM): 74.4%
- viability, T/C (second compound 0.00949 µM, first compound 0.00316 µM): 63.6%
- viability, T/C (second compound 0.00949 µM, first compound 0.01 µM): 62.4%
- viability, T/C (second compound 0.00949 µM, first compound 0.0316 µM): 77.5%
- viability, T/C (second compound 0.00949 µM, first compound 0.1 µM): 80.1%
- viability, T/C (second compound 0.00949 µM, first compound 0.316 µM): 88.1%
- viability, T/C (second compound 0.00949 µM, first compound 1 µM): 74.4%
- viability, T/C (second compound 0.03 µM, first compound 0.00316 µM): 82.4%
- viability, T/C (second compound 0.03 µM, first compound 0.01 µM): 71.6%
- viability, T/C (second compound 0.03 µM, first compound 0.0316 µM): 71.5%
- viability, T/C (second compound 0.03 µM, first compound 0.1 µM): 75.4%
- viability, T/C (second compound 0.03 µM, first compound 0.316 µM): 82.5%
- viability, T/C (second compound 0.03 µM, first compound 1 µM): 69.4%
- viability, T/C (second compound 0.0949 µM, first compound 0.00316 µM): 81.6%
- viability, T/C (second compound 0.0949 µM, first compound 0.01 µM): 75.9%
- viability, T/C (second compound 0.0949 µM, first compound 0.0316 µM): 77.6%
- viability, T/C (second compound 0.0949 µM, first compound 0.1 µM): 79.7%
- viability, T/C (second compound 0.0949 µM, first compound 0.316 µM): 77.7%
- viability, T/C (second compound 0.0949 µM, first compound 1 µM): 77%
- viability, T/C (second compound 0.3 µM, first compound 0.00316 µM): 65.4%
- viability, T/C (second compound 0.3 µM, first compound 0.01 µM): 69.2%
- viability, T/C (second compound 0.3 µM, first compound 0.0316 µM): 61.2%
- viability, T/C (second compound 0.3 µM, first compound 0.1 µM): 70.7%
- viability, T/C (second compound 0.3 µM, first compound 0.316 µM): 68%
- viability, T/C (second compound 0.3 µM, first compound 1 µM): 69.6%
